Data published in PubChem BioAssay (NCI).
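Exposure lasted 48 hours, with cells grown in 96-well plates and compounds tested at five concentrations. Here, GI50 denotes the concentration required for 50% inhibition of growth. The concentration for full growth arrest is given as TGI.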

What was measured:
Experiment in all cases: NCI tumour cell line growth inhibition, 48 h
[1] = system: NCI-H226 lung
[2] = system: MALME-3M melanoma
[3] = system: OVCAR-8 ovarian
[4] = system: COLO 205 colon
[5] = system: SK-OV-3 ovarian
[6] = system: SF-295 CNS
[7] = system: TK-10 renal
[8] = system: LOX IMVI melanoma
[9] = system: PC-3 prostate
[10] = system: MDA-MB-231 breast
[11] = system: RPMI-8226 leukemia
[12] = system: RXF 393 renal
[13] = system: MCF7 breast
[14] = system: NCI/ADR-RES ovarian
[15] = system: MDA-MB-435
[16] = system: HCT-116 colon
[17] = system: M14 melanoma
[18] = system: UO-31 renal
[19] = system: SK-MEL-2 melanoma
[20] = system: HL-60(TB) leukemia
[21] = system: SF-539 CNS
[22] = system: SW-620 colon
[23] = system: UACC-62 melanoma
[24] = system: NCI-H23 lung
[25] = system: CAKI-1 renal
[26] = system: ACHN renal
[27] = system: SK-MEL-5 melanoma
[28] = system: HCC-2998 colon
[29] = system: T-47D breast
[30] = system: HOP-62 NSCLC
[31] = system: CCRF-CEM leukemia
[32] = system: OVCAR-3 ovarian
[33] = system: MOLT-4 leukemia
[34] = system: KM12 colon
[35] = system: EKVX NSCLC
[36] = system: SR leukemia
[37] = system: HCT-15 colon
[38] = system: OVCAR-4 ovarian
[39] = system: SK-MEL-28 melanoma
[40] = system: SNB-19 CNS
[41] = system: NCI-H460 lung
[42] = system: SF-268 CNS
[43] = system: HS 578T breast
[44] = system: UACC-257 melanoma
[45] = system: NCI-H522 lung
[46] = system: A498 renal
[47] = system: K-562 leukemia
[48] = system: HT29 colon
[49] = system: IGROV1 ovarian
[50] = system: OVCAR-5 ovarian
[51] = system: SNB-75 CNS
[52] = system: 786-0 renal
[53] = system: U251 CNS
[54] = system: DU-145 prostate
[55] = system: SN12C renal
[56] = system: A549 NSCLC
[57] = system: HOP-92 NSCLC
[58] = system: BT-549 breast

CCC(/C=C(C)/C=C/C(=O)c1c(O)c(-c2ccc(O)cc2)c[nH]c1=O)CO (stereo not given)
GI50 [1]: 18 µM | TGI [1]: > 100 µM | GI50 [2]: 10.3 µM | TGI [2]: 26.4 µM | GI50 [3]: 8.34 µM | TGI [3]: > 100 µM | GI50 [4]: 15.5 µM | TGI [4]: 28.8 µM | GI50 [5]: 23.4 µM | TGI [5]: 99.5 µM | GI50 [6]: 10.1 µM | TGI [6]: 30.9 µM | GI50 [7]: 20.4 µM | TGI [7]: 80.8 µM | GI50 [8]: 9.87 µM | TGI [8]: 21.5 µM | GI50 [9]: 14.3 µM | TGI [9]: 82.1 µM | GI50 [10]: 9.17 µM | TGI [10]: 29.5 µM | GI50 [11]: 6.89 µM | TGI [11]: 32.3 µM | GI50 [12]: 5.82 µM | TGI [12]: 22.2 µM | GI50 [13]: 4.35 µM | TGI [13]: 18.9 µM | GI50 [14]: 21.6 µM | TGI [14]: > 100 µM | GI50 [15]: 4.34 µM | TGI [15]: 31.9 µM | GI50 [16]: 6.61 µM | TGI [16]: 19.2 µM | GI50 [17]: 12.9 µM | TGI [17]: 26.7 µM | GI50 [18]: 6.74 µM | TGI [18]: 28.7 µM | GI50 [19]: 16 µM | TGI [19]: 52.2 µM | GI50 [20]: 2.83 µM | TGI [20]: 17.4 µM | GI50 [21]: 3.22 µM | TGI [21]: 26 µM | GI50 [22]: 10.7 µM | TGI [22]: 26.9 µM | GI50 [23]: 10.2 µM | TGI [23]: 23.3 µM | GI50 [24]: 9.55 µM | TGI [24]: 24.1 µM | GI50 [25]: 10.5 µM | TGI [25]: 47.5 µM | GI50 [26]: 11.9 µM | TGI [26]: 37.9 µM | GI50 [27]: 11.2 µM | TGI [27]: 24.3 µM | GI50 [28]: 13 µM | TGI [28]: 25.6 µM | GI50 [29]: 10.6 µM | TGI [29]: 54.2 µM | GI50 [30]: 14.2 µM | TGI [30]: 37.2 µM | GI50 [31]: 3.53 µM | TGI [31]: 26.7 µM | GI50 [32]: 3.8 µM | TGI [32]: 16.1 µM | GI50 [33]: 5.84 µM | TGI [33]: 44.2 µM | GI50 [34]: 4.2 µM | TGI [34]: 16.1 µM | GI50 [35]: 15.4 µM | TGI [35]: 68 µM | GI50 [36]: 2.43 µM | TGI [36]: 13.2 µM | GI50 [37]: 8.13 µM | TGI [37]: 22.1 µM | GI50 [38]: 12 µM | TGI [38]: > 100 µM | GI50 [39]: 11.8 µM | TGI [39]: 24.6 µM | GI50 [40]: 11.9 µM | TGI [40]: 27.4 µM | GI50 [41]: 6.15 µM | TGI [41]: 21.9 µM | GI50 [42]: 6.8 µM | TGI [42]: 21.1 µM | GI50 [43]: 2.78 µM | TGI [43]: 36.1 µM | GI50 [44]: 11.3 µM | TGI [44]: 25 µM | GI50 [45]: 5.56 µM | TGI [45]: 21 µM | GI50 [46]: 3.69 µM | TGI [46]: 18.8 µM | GI50 [47]: 4.11 µM | TGI [47]: 37.4 µM | GI50 [48]: 13.9 µM | TGI [48]: 29.2 µM | GI50 [49]: 6.11 µM | TGI [49]: 42.1 µM | GI50 [50]: 13 µM | TGI [50]: 27.1 µM | GI50 [51]: 6.11 µM | TGI [51]: 24.5 µM | GI50 [52]: 8.1 µM | TGI [52]: 20.6 µM | GI50 [53]: 6.91 µM | TGI [53]: 23.9 µM | GI50 [54]: 2.83 µM | TGI [54]: 12.5 µM | GI50 [55]: 11.8 µM | TGI [55]: 41.9 µM | GI50 [56]: 20.7 µM | TGI [56]: 93.8 µM | GI50 [57]: 8.55 µM | TGI [57]: 82.6 µM

C=CCCC(=O)N1CCC(C(=O)OCC)C1=O (stereo not given)
TGI [1]: > 100 µM | TGI [2]: > 100 µM | TGI [3]: > 100 µM | TGI [4]: > 100 µM | TGI [5]: > 100 µM | TGI [6]: > 100 µM | TGI [7]: > 100 µM | TGI [8]: > 100 µM | TGI [9]: > 100 µM | TGI [10]: > 100 µM | TGI [12]: > 100 µM | TGI [14]: > 100 µM | TGI [15]: > 100 µM | TGI [16]: > 100 µM | TGI [17]: > 100 µM | TGI [18]: > 100 µM | TGI [19]: > 100 µM | TGI [20]: > 100 µM | TGI [21]: > 100 µM | TGI [22]: > 100 µM | TGI [58]: > 100 µM | TGI [23]: > 100 µM | TGI [24]: > 100 µM | TGI [25]: > 100 µM | TGI [26]: > 100 µM | TGI [27]: > 100 µM | TGI [29]: > 100 µM | TGI [30]: > 100 µM | TGI [31]: > 100 µM | TGI [33]: > 100 µM | TGI [34]: > 100 µM | TGI [35]: > 100 µM | TGI [37]: > 100 µM | TGI [38]: > 100 µM | TGI [39]: > 100 µM | TGI [40]: > 100 µM | TGI [42]: > 100 µM | TGI [43]: > 100 µM | TGI [44]: > 100 µM | TGI [45]: > 100 µM | TGI [46]: > 100 µM | TGI [49]: > 100 µM | TGI [50]: > 100 µM | TGI [51]: > 100 µM | TGI [52]: > 100 µM | TGI [53]: > 100 µM | TGI [54]: > 100 µM | TGI [55]: > 100 µM | TGI [56]: > 100 µM

CCCCSSC(=S)N(CC)CC
GI50 [1]: > 100 µM | TGI [1]: > 100 µM | GI50 [2]: 32.4 µM | TGI [2]: > 100 µM | GI50 [3]: 34.3 µM | TGI [3]: > 100 µM | GI50 [5]: > 100 µM | TGI [5]: > 100 µM | GI50 [6]: 37.1 µM | TGI [6]: > 100 µM | GI50 [7]: 41.2 µM | TGI [7]: > 100 µM | GI50 [8]: 20.6 µM | TGI [8]: 48.8 µM | GI50 [9]: 34.3 µM | TGI [9]: > 100 µM | GI50 [10]: 32.4 µM | TGI [10]: > 100 µM | GI50 [11]: 17.9 µM | TGI [11]: 40.1 µM | GI50 [12]: 23.3 µM | TGI [12]: 49.4 µM | GI50 [14]: 34.3 µM | TGI [14]: > 100 µM | GI50 [15]: 33.9 µM | TGI [15]: > 100 µM | GI50 [16]: 19 µM | TGI [16]: 37 µM | GI50 [17]: 25.7 µM | TGI [17]: 87 µM | GI50 [18]: 20.9 µM | TGI [18]: 47.6 µM | GI50 [19]: 57.7 µM | TGI [19]: > 100 µM | GI50 [20]: 12.4 µM | TGI [20]: 69.2 µM | GI50 [21]: 21.1 µM | TGI [21]: 56.5 µM | GI50 [22]: 16.7 µM | TGI [22]: 32.9 µM | GI50 [58]: 26.1 µM | TGI [58]: 75.9 µM | GI50 [23]: 34.2 µM | TGI [23]: > 100 µM | GI50 [24]: > 100 µM | TGI [24]: > 100 µM | GI50 [25]: 18.3 µM | TGI [25]: 54.5 µM | GI50 [26]: 46.9 µM | TGI [26]: > 100 µM | GI50 [27]: 21 µM | TGI [27]: > 100 µM | GI50 [28]: > 100 µM | TGI [28]: > 100 µM | GI50 [29]: 90.5 µM | TGI [29]: > 100 µM | GI50 [30]: > 100 µM | TGI [30]: > 100 µM | GI50 [31]: 18.4 µM | TGI [31]: > 100 µM | GI50 [32]: 20.4 µM | TGI [32]: 42.6 µM | GI50 [33]: 20.2 µM | TGI [33]: 54.9 µM | GI50 [35]: > 100 µM | TGI [35]: > 100 µM | GI50 [37]: 73.6 µM | TGI [37]: > 100 µM | GI50 [38]: 16.9 µM | TGI [38]: 32.3 µM | GI50 [39]: 23.4 µM | TGI [39]: 78.3 µM | GI50 [40]: > 100 µM | TGI [40]: > 100 µM | GI50 [41]: 25.4 µM | TGI [41]: > 100 µM | GI50 [42]: 41.7 µM | TGI [42]: > 100 µM | GI50 [43]: 38.6 µM | TGI [43]: > 100 µM | GI50 [44]: 79.5 µM | TGI [44]: > 100 µM | GI50 [46]: > 100 µM | TGI [46]: > 100 µM | GI50 [47]: 17.5 µM | TGI [47]: 40.1 µM | GI50 [50]: 36.4 µM | TGI [50]: > 100 µM | GI50 [51]: 55.5 µM | TGI [51]: > 100 µM | GI50 [52]: > 100 µM | TGI [52]: > 100 µM | GI50 [53]: 28.8 µM | TGI [53]: > 100 µM | GI50 [54]: 53.9 µM | TGI [54]: > 100 µM | GI50 [55]: 35.7 µM | TGI [55]: > 100 µM | GI50 [56]: > 100 µM | TGI [56]: > 100 µM | GI50 [57]: 26.9 µM | TGI [57]: > 100 µM
